EC50 data for 17 compounds are collected here from patent publication US9586961B2, “Homopiperazine derivatives as protein tyrosine kinase inhibitors and pharmaceutical use thereof” (LEO PHARMA A/S, priority 2010, dated 2017).

Holding throughout (type): biochemical
One assay has as its target T1, JAK1 (Homo sapiens, UniProt P23458).
T1 construct: JAK1 (aa 850-1154) and TYK2 (aa 871-1187) are expressed with an N-terminally fused GST-tag; GST (N); purchased Carna Biosciences, Inc; host or cells: baculovirus expression system
The experiment in a line: JAK1 kinase assay (HTRF, inhibition of phosphorylation of a synthetic peptide). The settings on record: catalytic domain aa 850-1154, GST-tag; 7 μM ATP (Km); read-out: JAK1 kinase inhibitory activity (EC50). Put shortly:
(§1)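 Baculovirus-expressed human catalytic domains (GST-JAK1, GST-TYK2, His-JAK2, His-JAK3) phosphorylated 1 μM TK substrate-biotin at ATP Km (JAK1 7 μM, JAK2 4 μM, JAK3 2 μM, TYK2 13 μM) in pH 7.0 Hepes for 20-30 min at RT, 0.75% DMSO. EDTA stop, then overnight streptavidin-XL665/cryptate-antibody detection and HTRF read.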
In general terms: Time-resolved FRET reads energy transfer from a long-lived donor to a nearby acceptor.

In a further assay the target is T2, JAK2 (Homo sapiens, UniProt O60674).
T2 construct: All four purified enzymes contain only the catalytic domain; His (N); purchased Carna Biosciences, Inc; host or cells: baculovirus expression system
The experiment in a line: JAK2 kinase assay (HTRF, inhibition of phosphorylation of a synthetic peptide). As to conditions: catalytic domain, His-tag; 4 μM ATP (Km); read-out: JAK2 kinase inhibitory activity (EC50). Summed up: as §1

For the next assay, the target named is T3, TYK2 (Homo sapiens, UniProt P29597).
T3 construct: JAK1 (aa 850-1154) and TYK2 (aa 871-1187) are expressed with an N-terminally fused GST-tag; GST (N); purchased Carna Biosciences, Inc; host or cells: baculovirus expression system
T3 sequence (P29597 871-1187): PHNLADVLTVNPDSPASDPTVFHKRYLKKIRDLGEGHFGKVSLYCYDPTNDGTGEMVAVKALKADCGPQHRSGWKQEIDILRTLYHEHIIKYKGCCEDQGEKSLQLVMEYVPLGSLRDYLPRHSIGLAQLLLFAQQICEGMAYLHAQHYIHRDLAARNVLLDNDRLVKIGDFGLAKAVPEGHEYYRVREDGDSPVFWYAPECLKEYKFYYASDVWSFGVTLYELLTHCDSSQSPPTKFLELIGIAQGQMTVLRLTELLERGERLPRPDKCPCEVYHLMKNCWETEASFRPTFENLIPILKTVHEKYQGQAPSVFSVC
Description: TYK2 kinase assay (HTRF, inhibition of phosphorylation of a synthetic peptide). As to conditions: catalytic domain aa 871-1187, GST-tag; 13 μM ATP (Km); read-out: TYK2 kinase inhibitory activity (EC50). As for the experimental part:
JAK1, JAK2, JAK3 and TYK2 Kinase Assays:
Human baculovirus-expressed JAK1, 2, 3 and TYK2 were purchased from Carna Biosciences, Inc. All four purified enzymes contain only the catalytic domain. JAK1 (aa 850-1154) and TYK2 (aa 871-1187) are expressed with an N-terminally fused GST-tag, and JAK2 and JAK3 with an N-terminally fused His-tag. Inhibition of phosphorylation of a synthetic peptide was measured in an HTRF-based assay using the TK substrate-Biotin from the CisbioHTRFKinEASE TK kit. First, 2 μl of TK solution (TK substrate-biotin in kinase buffer [1× enzymatic buffer from HTRFKinEASE TK kit, 1 mM DTT]) is added to a plate containing 1 μl prediluted compound (final assay concentration DMSO: 0.75%). Then, 5 μl kinase-ATP mix (prepared in kinase buffer) is added to the wells and the plates are incubated at RT for 20-30 min. For all four kinases a concentration of ATP that corresponded to the Km for ATP was used. The final concentrations of buffers, substrate, kinase and ATP were: JAK1: 50 mMHepes buffer pH 7.0, 0.01% BSA, 10 mM MgCl2, 1 mM DTT, 7 μM ATP, 50 nMSEB, 1 μM TK Substrate-Biotin and 5 ng JAK1; JAK2: 50 mM Hepes buffer pH 7.0, 0.01% BSA, 5 mM MgCl2, 1 mM DTT, 4 μM ATP, 1 μM TK Substrate-Biotin and 0.1 ng JAK2; JAK3: 50 mMHepes buffer pH 7.0, 0.01% BSA, 5 mM MgCl2, 1 mM DTT, 2 μM ATP, 1 μM TK Substrate-Biotin and 0.3 ng JAK3; TYK2: 50 mMHepes buffer pH 7.0, 0.01% BSA, 5 mM MgCl2, 1 mM DTT, 13 μM ATP, 50 nMSEB, 1 μM TK Substrate-Biotin and 0.8 ng TYK2. Thereafter, the kinase reaction is stopped by adding 4 μl detection mix (final concentrations: 50 mM Hepes buffer pH 7.0, 0.01% BSA, 0.8 M KF, 20 mM EDTA, 42 nM Streptavidin-XL665 and 1:400 STKAbCryptate) and the plates are incubated overnight in the dark. The HTRF signal is read using an Envision plate reader.

The target in another assay is T4, JAK3 (Homo sapiens, UniProt P52333).
T4 construct: All four purified enzymes contain only the catalytic domain; His (N); purchased Carna Biosciences, Inc; host or cells: baculovirus expression system
The experiment in a line: JAK3 kinase assay (HTRF, inhibition of phosphorylation of a synthetic peptide). The settings on record: catalytic domain, His-tag; 2 μM ATP (Km); read-out: JAK3 kinase inhibitory activity (EC50). Put shortly:
as §1

T2 sequence (O60674 849-1124 limits assumed): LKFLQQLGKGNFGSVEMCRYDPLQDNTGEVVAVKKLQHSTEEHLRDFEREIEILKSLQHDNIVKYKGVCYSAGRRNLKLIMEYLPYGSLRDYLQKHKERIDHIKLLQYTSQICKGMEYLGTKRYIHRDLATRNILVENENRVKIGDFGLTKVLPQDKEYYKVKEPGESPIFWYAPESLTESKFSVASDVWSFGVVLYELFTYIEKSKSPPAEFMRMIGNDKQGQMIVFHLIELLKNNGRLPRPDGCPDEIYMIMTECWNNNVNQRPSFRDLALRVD
T4 sequence (P52333 822-1111 limits assumed): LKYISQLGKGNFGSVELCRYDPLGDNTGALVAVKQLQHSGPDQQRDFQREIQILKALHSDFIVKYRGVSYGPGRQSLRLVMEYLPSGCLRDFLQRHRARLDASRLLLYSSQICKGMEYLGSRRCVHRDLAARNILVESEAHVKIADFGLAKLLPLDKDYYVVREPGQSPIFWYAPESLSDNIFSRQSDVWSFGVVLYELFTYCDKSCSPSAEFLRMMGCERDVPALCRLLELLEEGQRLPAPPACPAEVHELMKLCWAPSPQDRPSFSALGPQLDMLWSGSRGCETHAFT
T1 sequence (P23458 850-1154): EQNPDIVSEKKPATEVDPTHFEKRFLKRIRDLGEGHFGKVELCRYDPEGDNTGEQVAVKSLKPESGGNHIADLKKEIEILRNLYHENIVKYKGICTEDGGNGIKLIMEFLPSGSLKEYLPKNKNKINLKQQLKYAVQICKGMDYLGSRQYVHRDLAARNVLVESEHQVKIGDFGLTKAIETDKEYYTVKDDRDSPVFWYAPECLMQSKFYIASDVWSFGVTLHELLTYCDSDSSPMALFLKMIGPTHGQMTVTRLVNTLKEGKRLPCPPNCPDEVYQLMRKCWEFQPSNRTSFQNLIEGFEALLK

For the compound `N#CCOc1cccc(CC(=O)N2CCN(c3ncnc4[nH]ccc34)CC3(CC3)C2)c1` [Example 17, 2-[3-[2-oxo-2-[5-(7H-pyrrolo[2,3-d]pyrimidin-4-yl)-5,8-diazaspiro[2.6]nonan-8-yl]ethyl]phenoxy]acetonitrile], the EC50 was 100 to 1000 nM on JAK1, 100 to 1000 nM at JAK2, over 1000 nM on TYK2 and 100 to 1000 nM on JAK3.

`O=C(c1cc2ccccc2s1)N1CCN(c2ncnc3[nH]ccc23)CC2(CC2)C1` [Example 18, benzothiophen-2-yl-[5-(7H-pyrrolo[2,3-d]pyrimidin-4-yl)-5,8-diazaspiro[2.6]nonan-8-yl]methanone]: the EC50 at JAK1 is under 100 nM; at JAK2 it was 100 to 1000 nM; at TYK2 it was over 1000 nM; at JAK3, 100 to 1000 nM.

`N#Cc1csc(C(=O)N2CCN(c3ncnc4[nH]ccc34)CC3(CC3)C2)c1` [Example 19, 5-[5-(7H-pyrrolo[2,3-d]pyrimidin-4-yl)-5,8-diazaspiro[2.6]nonane-8-carbonyl]thiophene-3-carbonitrile]: the EC50 is 100 to 1000 nM on JAK1, under 100 nM at JAK2, over 1000 nM on TYK2 and 100 to 1000 nM at JAK3.

Take `NS(=O)(=O)c1ccc(CC(=O)N2CCN(c3ncnc4[nH]ccc34)CC3(CC3)C2)cc1` [Example 20, 4-[2-oxo-2-[5-(7H-pyrrolo[2,3-d]pyrimidin-4-yl)-5,8-diazaspiro[2.6]nonan-8-yl]ethyl]benzenesulfonamide]: the EC50 on JAK1 is under 100 nM; at JAK2, under 100 nM; on TYK2, 100 to 1000 nM; at JAK3, under 100 nM.

`O=C(c1cc2c(s1)CCC2)N1CCN(c2ncnc3[nH]ccc23)CC2(CC2)C1` [Example 21, 5,6-dihydro-4H-cyclopenta[b]thiophen-2-yl-[5-(7H-pyrrolo[2,3-d]pyrimidin-4-yl)-5,8-diazaspiro[2.6]nonan-8-yl]methanone]: the EC50 was 100 to 1000 nM on JAK1, 100 to 1000 nM at JAK2, over 1000 nM at TYK2 and 100 to 1000 nM at JAK3.

As for `COc1csc(C(=O)N2CCN(c3ncnc4[nH]ccc34)CC3(CC3)C2)c1` [Example 22, (4-methoxy-2-thienyl)-[5-(7H-pyrrolo[2,3-d]pyrimidin-4-yl)-5,8-diazaspiro[2.6]nonan-8-yl]methanone], the EC50 on JAK1 is under 100 nM; at JAK2, 100 to 1000 nM; on TYK2, over 1000 nM; on JAK3 it was 100 to 1000 nM.

For the compound `CNS(=O)(=O)c1csc(C(=O)N2CCN(c3ncnc4[nH]ccc34)CC3(CC3)C2)c1C` [Example 23, N,4-dimethyl-5-[5-(7H-pyrrolo[2,3-d]pyrimidin-4-yl)-5,8-diazaspiro[2.6]nonane-8-carbonyl]thiophene-3-sulfonamide], the EC50 is 100 to 1000 nM on JAK1, under 100 nM at JAK2, over 1000 nM on TYK2 and 100 to 1000 nM at JAK3.

With `Cc1sc(C(=O)N2CCN(c3ncnc4[nH]ccc34)CC3(CC3)C2)cc1S(N)(=O)=O` [Example 24, 2-methyl-5-[5-(7H-pyrrolo[2,3-d]pyrimidin-4-yl)-5,8-diazaspiro[2.6]nonane-8-carbonyl]thiophene-3-sulfonamide], the EC50 on JAK1 was under 100 nM; on JAK2, under 100 nM; on TYK2, 100 to 1000 nM; on JAK3, under 100 nM.

Regarding `Cc1c(S(N)(=O)=O)csc1C(=O)N1CCN(c2ncnc3[nH]ccc23)CC2(CC2)C1` [Example 25, 4-methyl-5-[5-(7H-pyrrolo[2,3-d]pyrimidin-4-yl)-5,8-diazaspiro[2.6]nonane-8-carbonyl]thiophene-3-sulfonamide], the EC50 on JAK1 is 100 to 1000 nM; at JAK2, under 100 nM; on TYK2, over 1000 nM; on JAK3 it was 100 to 1000 nM.

Take `CNS(=O)(=O)c1cc(C(=O)N2CCN(c3ncnc4[nH]ccc34)CC3(CC3)C2)sc1C` [Example 26, N,2-dimethyl-5-[5-(7H-pyrrolo[2,3-d]pyrimidin-4-yl)-5,8-diazaspiro[2.6]nonane-8-carbonyl]thiophene-3-sulfonamide]: the concentration giving a half-maximal response (EC50) at JAK1 was 100 to 1000 nM; on JAK2, under 100 nM; at TYK2 it was over 1000 nM; on JAK3, 100 to 1000 nM.

`NS(=O)(=O)c1csc(C(=O)N2CCN(c3ncnc4[nH]ccc34)CC3(CC3)C2)c1` [Example 27, 5-[5-(7H-pyrrolo[2,3-d]pyrimidin-4-yl)-5,8-diazaspiro[2.6]nonane-8-carbonyl]thiophene-3-sulfonamide]: the EC50 on JAK1 is 100 to 1000 nM; at JAK2, under 100 nM; at TYK2 it was over 1000 nM; at JAK3 it was under 100 nM.

Take `CNS(=O)(=O)c1csc(C(=O)N2CCN(c3ncnc4[nH]ccc34)CC3(CC3)C2)c1` [Example 28, N-methyl-5-[5-(7H-pyrrolo[2,3-d]pyrimidin-4-yl)-5,8-diazaspiro[2.6]nonane-8-carbonyl]thiophene-3-sulfonamide]: the EC50 is 100 to 1000 nM on JAK1, under 100 nM on JAK2, over 1000 nM on TYK2 and 100 to 1000 nM at JAK3.

For the compound `Cc1cc(C(=O)N2CCN(c3ncnc4[nH]ccc34)CC3(CC3)C2)ccc1S(N)(=O)=O` [Example 29, 2-methyl-4-[5-(7H-pyrrolo[2,3-d]pyrimidin-4-yl)-5,8-diazaspiro[2.6]nonane-8-carbonyl]benzenesulfonamide], the EC50 is 100 to 1000 nM on JAK1, 100 to 1000 nM at JAK2, over 1000 nM at TYK2 and 100 to 1000 nM on JAK3.

`O=C(Cc1cccs1)N1CCN(c2ncnc3[nH]ccc23)CC2(CC2)C1` [Example 30, 1-[5-(7H-pyrrolo[2,3-d]pyrimidin-4-yl)-5,8-diazaspiro[2.6]nonan-8-yl]-2-(2-thienyl)ethanone]: the EC50 at JAK1 is under 100 nM; on JAK2, under 100 nM; at TYK2, 100 to 1000 nM; on JAK3, 100 to 1000 nM.

`NS(=O)(=O)c1ccc(C(=O)N2CCN(c3ncnc4[nH]ccc34)CC3(CC3)C2)cc1` [Example 31, 4-[5-(7H-pyrrolo[2,3-d]pyrimidin-4-yl)-5,8-diazaspiro[2.6]nonane-8-carbonyl]benzenesulfonamide]: the EC50 on JAK1 is under 100 nM; at JAK2, under 100 nM; on TYK2 it was 100 to 1000 nM; at JAK3, under 100 nM.

`NS(=O)(=O)c1ccc(C(=O)N2CCN(c3ncnc4[nH]ccc34)CC3(CC3)C2)cc1Cl` [Example 32, 2-chloro-4-[5-(7H-pyrrolo[2,3-d]pyrimidin-4-yl)-5,8-diazaspiro[2.6]nonane-8-carbonyl]benzenesulfonamide]: the EC50 is under 100 nM at JAK1, 100 to 1000 nM at JAK2, over 1000 nM at TYK2 and 100 to 1000 nM at JAK3.

Consider `CN(C)S(=O)(=O)c1ccc(C(=O)N2CCN(c3ncnc4[nH]ccc34)CC3(CC3)C2)cc1` [Example 33, N,N-dimethyl-4-[5-(7H-pyrrolo[2,3-d]pyrimidin-4-yl)-5,8-diazaspiro[2.6]nonane-8-carbonyl]benzenesulfonamide], for which the EC50 was 100 to 1000 nM at JAK1, 100 to 1000 nM at JAK2, over 1000 nM at TYK2 and 100 to 1000 nM at JAK3.

What is called EC50 is the concentration at which the effect is half-maximal.
